Data set [1] in a line: Solubility of the racemic potassium salt solvated in methanol in methanolic potassium hydroxide solution. The settings on record: KOH excess about 0.2 molar equivalent. The class given is physicochemical.
Data set [2] is described as follows: Solubility of the racemic potassium salt solvated with ethanol in ethanolic potassium hydroxide solution. The settings on record: KOH excess about 0.2 molar equivalent. The class given is physicochemical.
Data set [3] in a line: Solubility of the racemic potassium salt solvated with ethylene glycol in ethanol/ethylene glycol mixture (80% V-20% V) with potassium hydroxide excess. Particulars: ethanol/ethylene glycol (80% V-20% V), KOH excess about 0.2 molar equivalent. The class given is physicochemical.
The conditions of data set [4]: compared with S-tenatoprazole itself and other proton-pump inhibitors; cited from earlier work.
For data set [5] the following is noted: cited from earlier work.
Data set [6] relates to gastric lesions. The settings on record: compared with the other known proton-pump inhibitors; cited from earlier work.
Setting [7] is: relative to the other proton-pump inhibitors, for instance omeprazole or lansoprazole.

Take `COc1ccc2nc([S+]([O-])Cc3ncc(C)c(OC)c3C)[n-]c2n1.[K+]` (racemic) [racemic mixture of the potassium salt solvated in methanol, potassium tenatoprazole dimethanolate]: the “Solubility (mass %)” value in data set [1] (30 ° C.) came out at 4.4 mass %; in data set [1] (38 ° C.), 5.2 mass %; in data set [1] (40 ° C.), 6.5 mass %; in data set [1] (42 ° C.), 7.7 mass %; in data set [1] (56 ° C.), 12.2 mass %.
For the molecule `COc1ccc2nc([S+]([O-])Cc3ncc(C)c(OC)c3C)[n-]c2n1.[K+]` (racemic) [racemic mixture of the potassium salt solvated with ethanol, potassium tenatoprazole diethanolate], the “Solubility (mass %)” value is recorded as 4.24 mass % in data set [2] (33.9 ° C.) and 5.3 mass % in data set [2] (37 ° C.).
As to `COc1ccc2nc([S+]([O-])Cc3ncc(C)c(OC)c3C)[n-]c2n1.[K+]` (racemic) [racemic mixture of the potassium salt solvated with ethylene glycol, potassium tenatoprazole ethylene glycolate], the “Solubility (mass %)” value is on record as 20.3 mass % in data set [3] (28 ° C.), 24 mass % in data set [3] (32 ° C.), 25.6 mass % in data set [3] (34.5 ° C.) and 33.5 mass % in data set [3] (39 ° C.).
With `COc1ccc2[nH]c([S+]([O-])Cc3ncc(C)c(OC)c3C)nc2n1.O.[Na]` (stereo not shown) [S-tenatoprazole sodium salt monohydrate], the solubility result in data set [4] is “excellent solubility”.
For the molecule `COc1ccc2[nH]c([S@@+]([O-])Cc3ncc(C)c(OC)c3C)nc2n1` [S-tenatoprazole], in data set [5] (compared with the racemic mixture and the enantiomer of R configuration), the pharmacokinetic properties result was “significantly different”.
For `COc1ccc2nc([S+]([O-])Cc3ncc(C)c(OC)c3C)[nH]c2n1` (stereo not shown) [tenatoprazole, 5-methoxy-2-[[(4-methoxy-3,5-dimethyl-2-pyridyl)methyl]sulfinyl]imidazo[4,5-b]pyridine], the “level of relief of the symptoms and of cicatrization of gastric lesions” value in data set [6] was “greater level of relief of the symptoms and of cicatrization of gastric lesions”. Besides, in data set [5] (setting [7]), the duration of action entry is recorded as “markedly longer duration of action” and the plasmatic half-life entry is reported as “about seven times greater”.
